These results are taken from patent US20080262228A1, “Metabolites of 5-fluoro-8- quinoline and methods of preparation and uses thereof” (Wyeth, priority 2006, published 2008).

The structures appear in SMILES notation. Structures can show the parent of a compound that is named as a salt.

In assay [1] the target is T1, human 5-HT1A receptor (Homo sapiens, UniProt P08908).
T1 construct: expressed in transfected cells
T1 sequence (P08908 1-422): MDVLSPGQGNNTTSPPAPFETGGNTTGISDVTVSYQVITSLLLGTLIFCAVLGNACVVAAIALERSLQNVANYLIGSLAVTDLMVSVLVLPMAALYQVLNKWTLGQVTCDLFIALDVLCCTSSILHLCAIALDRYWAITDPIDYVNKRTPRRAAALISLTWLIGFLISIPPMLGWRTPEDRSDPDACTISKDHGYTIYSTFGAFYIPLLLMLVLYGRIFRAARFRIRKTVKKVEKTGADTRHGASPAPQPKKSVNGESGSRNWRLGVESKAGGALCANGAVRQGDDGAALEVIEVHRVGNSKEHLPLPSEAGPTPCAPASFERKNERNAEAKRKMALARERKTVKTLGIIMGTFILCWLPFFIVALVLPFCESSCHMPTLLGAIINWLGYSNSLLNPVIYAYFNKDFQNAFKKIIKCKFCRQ
Description: Forskolin-induced adenylate cyclase (cAMP) functional assay in h5-HT1A.CHO cells. In kind it is cell-based. The method, then:
(§1) A Ki value is reported. The in vitro functional activity of the compounds of this invention is determined by measuring the effect of the compound on forskolin-induced adenylate cyclase activity in the same cell line. 5-HT1A agonists, such as the full agonist 8-OH-DPAT, inhibit forskolin-induced adenylate cyclase activity, as measured by a reduction in cAMP levels. The compounds of this invention display agonist activity as shown by its ability to induce a decrease in cAMP levels. An EC50 value is reported and the maximum response of the test compound is reported as the percent of a full agonist response (the maximum response obtained with the full agonist 8-OH-DPAT=100%). This percent is expressed as an Emax value.
The PCR cloning of the human 5-HT1A receptor subtype from a human genomic library has been described previously (Chanda et al., Mol. Pharmacol., 43:516 (1993)). A stable Chinese hamster ovary cell line expressing the human 5-HT1A receptor subtype (h5-HT1A.CHO cells) was employed throughout this study. […]
Measurements can be performed as described in Dunlop, J. et al., supra. […] Functional activity is assessed by treating the cells with forskolin (1 uM final concentration) followed immediately by test compound (6 different concentrations) for an additional 10 min. at 37° C. […]

The target of assay [2] is T1, human 5-HT1A receptor. The assay is described as follows: [3H]-8-OH-DPAT displacement radioligand binding. Particulars: h5-HT1A.CHO cell membranes, read-out: Ki value for 5-HT1A affinity. The method, then:
as §1
The PCR cloning of the human 5-HT1A receptor subtype from a human genomic library has been described previously (Chanda et al., Mol. Pharmacol., 43:516 (1993)). A stable Chinese hamster ovary cell line expressing the human 5-HT1A receptor subtype (h5-HT1A.CHO cells) was employed throughout this study. Cells were maintained in DMEM supplemented with 10% fetal calf serum, non-essential amino acids and penicillin/streptomycin.
Radioligand binding assays can be performed as described in Dunlop, J. et al., J. Pharmacol. and Toxicol. Methods 40: 47-55 (1998). […] Non-specific binding is determined in the presence of 10 μM 5HT. […]

As usually defined, the EC50 is the concentration needed to bring the measured effect to its halfway point. For orientation: Emax means the maximal effect, on the per cent scale that the assay sets. By Ki is commonly meant a dissociation constant, usually derived from enzyme kinetics or from competition with a known ligand. Regarding `Oc1cc(N2CCN(C3CCN(c4ccc(F)c5cccnc45)CC3)CC2)c2ncccc2c1` [Metabolite M21, 8-{4-[1-(5-fluoroquinolin-8-yl)piperidin-4-yl]piperazin-1-yl}quinolin-6-ol trihydrochloride], the EC50 at human 5-HT1A receptor [1] (decrease of forskolin-induced cAMP, read-out: EC50 value for in vitro agonist activity) was found to be 0.39 nM. Moreover, on human 5-HT1A receptor [1] (percent of full agonist response (8-OH-DPAT=100%)), the Emax was found to be 92%. Besides, the Ki on human 5-HT1A receptor [2] was found to be 0.47 nM.
